Here are results for 15 compounds from patent US20260146035A1, “FUSED BICYCLIC COMPOUNDS AND THEIR USE AS MER AND AXL INHIBITORS” (DONG-A ST CO., LTD., priority 2022, published 2026).

As a reminder, the IC50 is the concentration that gives 50% inhibition.

Each structure is given as a SMILES string.

For test [1], the target named is T1, human AXL (473-end) (Homo sapiens, UniProt P30530).
T1 construct: human AXL (473-end); purchased SignalChem, Canada
T1 sequence (P30530 473-894 limits assumed): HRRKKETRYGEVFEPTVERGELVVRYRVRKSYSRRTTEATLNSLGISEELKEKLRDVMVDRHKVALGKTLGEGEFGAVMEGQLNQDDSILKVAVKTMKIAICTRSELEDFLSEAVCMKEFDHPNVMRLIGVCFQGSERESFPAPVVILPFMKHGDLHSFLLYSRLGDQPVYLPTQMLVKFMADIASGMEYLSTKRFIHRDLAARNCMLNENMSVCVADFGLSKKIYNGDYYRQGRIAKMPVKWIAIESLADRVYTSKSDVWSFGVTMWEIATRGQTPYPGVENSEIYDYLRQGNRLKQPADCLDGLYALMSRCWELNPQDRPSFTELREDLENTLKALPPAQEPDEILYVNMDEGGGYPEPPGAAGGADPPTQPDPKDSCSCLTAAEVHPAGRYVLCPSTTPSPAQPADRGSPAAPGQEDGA
Nature of the test: HTRF kinase activity biochemical assay, AXL. The note with it: 10 μM ATP, 30 minutes pre-incubation. On the technique in general: In TR-FRET formats the signal depends on donor and acceptor labels being close together.

Test [2] addresses T2, human TYRO3 (455-end) (Homo sapiens, UniProt Q06418).
T2 construct: TYRO3 (455-end); purchased SignalChem, Canada
T2 sequence (Q06418 455-890 limits assumed): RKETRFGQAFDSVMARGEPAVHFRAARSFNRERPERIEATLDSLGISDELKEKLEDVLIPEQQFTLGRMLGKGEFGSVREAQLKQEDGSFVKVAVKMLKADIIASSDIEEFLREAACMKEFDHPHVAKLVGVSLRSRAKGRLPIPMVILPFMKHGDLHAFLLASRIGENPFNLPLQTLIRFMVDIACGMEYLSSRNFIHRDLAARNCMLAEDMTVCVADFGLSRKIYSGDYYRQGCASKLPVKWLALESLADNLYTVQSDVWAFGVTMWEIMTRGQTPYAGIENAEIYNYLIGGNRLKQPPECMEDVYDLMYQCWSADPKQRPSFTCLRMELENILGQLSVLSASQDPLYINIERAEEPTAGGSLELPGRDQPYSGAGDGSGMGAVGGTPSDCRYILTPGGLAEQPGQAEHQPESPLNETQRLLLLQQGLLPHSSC
Kind of test: HTRF kinase activity biochemical assay, TYRO3. Particulars: 10 μM ATP, 30 minutes pre-incubation; read-out: HTRF TYRO IC50.

In test [3] the target is T3, human MER (528-end) (Homo sapiens, UniProt Q12866).
T3 construct: human MER (528-end); purchased Camnabio, Japan
T3 sequence (Q12866 528-999 limits assumed): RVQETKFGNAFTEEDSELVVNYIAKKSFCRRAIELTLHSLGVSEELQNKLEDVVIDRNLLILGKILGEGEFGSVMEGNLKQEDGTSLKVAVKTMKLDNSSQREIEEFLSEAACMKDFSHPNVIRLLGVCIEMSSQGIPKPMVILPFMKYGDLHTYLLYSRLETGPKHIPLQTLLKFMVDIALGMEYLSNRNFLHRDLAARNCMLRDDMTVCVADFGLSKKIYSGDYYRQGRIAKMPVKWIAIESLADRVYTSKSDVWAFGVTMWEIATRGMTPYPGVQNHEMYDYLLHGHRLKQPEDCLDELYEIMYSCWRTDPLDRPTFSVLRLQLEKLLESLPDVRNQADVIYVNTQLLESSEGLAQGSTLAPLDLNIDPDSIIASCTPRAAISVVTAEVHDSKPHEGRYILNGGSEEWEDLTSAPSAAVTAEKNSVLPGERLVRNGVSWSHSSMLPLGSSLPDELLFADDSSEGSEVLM
Kind of test: HTRF kinase activity biochemical assay, MER. The note with it: 10 μM ATP, 30 minutes pre-incubation; read-out: HTRF MERTK IC50.

Turning to `COc1ccnc(N)c1C(=O)N[C@H]1CCC[C@@H]1OCc1ccc(-c2ccc3c(c2)CC[C@@H]3N2CCN(CCO)CC2)cc1` [Example 137, 2-amino-N-{(1S,2S)-2-[(4-{(1S)-1-[4-(2-hydroxyethyl)piperazin-1-yl]-2,3-dihydro-1H-inden-5-yl}phenyl)methoxy]cyclopentyl}-4-methoxypyridine-3-carboxamide], the IC50 in test [1] is less than 10 nM; in test [2] it was 100 to 1000 nM; in test [3], less than 10 nM.

Turning to `COc1ccnc(N)c1C(=O)N[C@H]1CCC[C@@H]1OCc1ccc(-c2ccc3c(c2)C(C)(C)CC3N2CCN(C)CC2)cc1` (stereo partly drawn) [Example 138, 2-amino-N-[(1S,2S)-2-({4-[3,3-dimethyl-1-(4-methylpiperazin-1-yl)-2,3-dihydro-1H-inden-5-yl]phenyl}methoxy)cyclopentyl]-4-methoxypyridine-3-carboxamide], the IC50 in test [1] was less than 10 nM; in test [2] it was 100 to 1000 nM; in test [3], less than 10 nM.

For the compound `COc1ccnc(N)c1C(=O)N[C@H]1CCC[C@@H]1OCc1ccc(-c2ccc3c(c2)CC[C@@H]3N2CCN(C)CC2)cc1` [Example 139, 2-amino-4-methoxy-N-[(1S,2S)-2-({4-[(1S)-1-(4-methylpiperazin-1-yl)-2,3-dihydro-1H-inden-5-yl]phenyl}methoxy)cyclopentyl]pyridine-3-carboxamide], the IC50 in test [1] is less than 10 nM; in test [2] it was 100 to 1000 nM; in test [3] it was less than 10 nM.

For the compound `CC1(C)CC(N2CCN(C(CO)CO)CC2)c2ccc(-c3ccc(CO[C@H]4CCC[C@@H]4NC(=O)c4cc(-c5cccnc5F)cnc4N)cc3)cc21` (stereo partly drawn) [Example 140, 6-amino-N-{(1S,2S)-2-[(4-{1-[4-(1,3-dihydroxypropan-2-yl)piperazin-1-yl]-3,3-dimethyl-2,3-dihydro-1H-inden-5-yl}phenyl)methoxy]cyclopentyl}-2′-fluoro[3,3′-bipyridine]-5-carboxamide], the IC50 in test [1] is less than 10 nM; in test [2] it was 100 to 1000 nM; in test [3] it was less than 10 nM.

As to `Cn1cc(-c2cnc(N)c(C(=O)N[C@H]3CCC[C@@H]3OCc3ccc(-c4ccc5c(c4)CCC[C@@H]5N4CCNCC4)cc3)c2)cn1` [Example 141, 2-amino-5-(1-methyl-1H-pyrazol-4-yl)-N-[(1S,2S)-2-({4-[(5S)-5-(piperazin-1-yl)-5,6,7,8-tetrahydronaphthalen-2-yl]phenyl}methoxy)cyclopentyl]pyridine-3-carboxamide], the figures for the IC50 in test [1], in test [2] and in test [3] were less than 10 nM, 10 to 100 nM and less than 10 nM, respectively.

Turning to `CN1CCN([C@H]2CCc3cc(-c4ccc(CO[C@H]5CCC[C@@H]5NC(=O)c5cc(C(F)(F)F)cnc5N)cc4)ccc32)CC1` [Example 143, 2-amino-N-[(1S,2S)-2-({4-[(1S)-1-(4-methylpiperazin-1-yl)-2,3-dihydro-1H-inden-5-yl]phenyl}methoxy)cyclopentyl]-5-(trifluoromethyl)pyridine-3-carboxamide], the IC50 in test [1] is less than 10 nM; in test [2] it was 100 to 1000 nM; in test [3] it was less than 10 nM.

Regarding `CN1CCN([C@@H]2CC(C)(C)c3cc(-c4ccc(CO[C@H]5CCC[C@@H]5NC(=O)c5cc(-c6cnn(C)c6)cnc5N)cc4)ccc32)CC1` [Example 145, 2-amino-N-[(1S,2S)-2-({4-[(1R)-3,3-dimethyl-1-(4-methylpiperazin-1-yl)-2,3-dihydro-1H-inden-5-yl]phenyl}methoxy)cyclopentyl]-5-(1-methyl-1H-pyrazol-4-yl)pyridine-3-carboxamide], the figures for the IC50 in test [1], in test [2] and in test [3] were 10 to 100 nM, greater than 1000 nM and 10 to 100 nM, respectively.

Consider `Cn1cc(-c2cnc(N)c(C(=O)N[C@H]3CCC[C@@H]3OCc3ccc(-c4ccc5c(c4)C(C)(C)CCC5N4CCNCC4)cc3)c2)cn1` (stereo partly drawn) [Example 146, 2-amino-N-[(1S,2S)-2-({4-[8,8-dimethyl-5-(piperazin-1-yl)-5,6,7,8-tetrahydronaphthalen-2-yl]phenyl}methoxy)cyclopentyl]-5-(1-methyl-1H-pyrazol-4-yl)pyridine-3-carboxamide], for which the results for the IC50 in test [1], in test [2] and in test [3] were less than 10 nM, 10 to 100 nM and less than 10 nM, respectively.

For `CN1CCN(C2CCC(C)(C)c3cc(-c4ccc(CO[C@H]5CCC[C@@H]5NC(=O)c5cc(-c6cnn(C)c6)cnc5N)cc4)ccc32)CC1` (stereo partly drawn) [Example 147, 2-amino-N-[(1S,2S)-2-({4-[8,8-dimethyl-5-(4-methylpiperazin-1-yl)-5,6,7,8-tetrahydronaphthalen-2-yl]phenyl}methoxy)cyclopentyl]-5-(1-methyl-1H-pyrazol-4-yl)pyridine-3-carboxamide], the IC50 in test [1] was less than 10 nM; in test [2], 10 to 100 nM; in test [3] it was less than 10 nM.

For the compound `Cn1cc(-c2cnc(N)c(C(=O)N[C@H]3CCC[C@@H]3OCc3ccc(-c4ccc5c(c4)C(C)(C)CCC5N4CCN(CCO)CC4)cc3)c2)cn1` (stereo partly drawn) [Example 148, 2-amino-N-{(1S,2S)-2-[(4-{5-[4-(2-hydroxyethyl)piperazin-1-yl]-8,8-dimethyl-5,6,7,8-tetrahydronaphthalen-2-yl}phenyl)methoxy]cyclopentyl}-5-(1-methyl-1H-pyrazol-4-yl)pyridine-3-carboxamide], the IC50 in test [1] is less than 10 nM; in test [2] it was 10 to 100 nM; in test [3], less than 10 nM.

`Nc1ncc(-c2cccnc2F)cc1C(=O)N[C@H]1CCC[C@@H]1OCc1ccc(-c2ccc3c(c2)CCCC3N2CCN(CCO)CC2)cc1` (stereo partly drawn) [Example 149, 6-amino-2′-fluoro-N-{(1S,2S)-2-[(4-{5-[4-(2-hydroxyethyl)piperazin-1-yl]-5,6,7,8-tetrahydronaphthalen-2-yl}phenyl)methoxy]cyclopentyl}[3,3′-bipyridine]-5-carboxamide]: the IC50 in test [1] was less than 10 nM; in test [2], 10 to 100 nM; in test [3] it was less than 10 nM.

For `CN1CCN([C@H]2CC(C)(C)c3cc(-c4ccc(CO[C@H]5CCC[C@@H]5NC(=O)c5cc(-c6cccnc6F)cnc5N)cc4)ccc32)CC1` [Example 150, 6-amino-N-[(1S,2S)-2-({4-[(1S)-3,3-dimethyl-1-(4-methylpiperazin-1-yl)-2,3-dihydro-1H-inden-5-yl]phenyl}methoxy)cyclopentyl]-2′-fluoro[3,3′-bipyridine]-5-carboxamide], the IC50 in test [1] was less than 10 nM; in test [2], 10 to 100 nM; in test [3], less than 10 nM.

`COc1ccc(-c2cnc(N)c(C(=O)N[C@H]3CCC[C@@H]3OCc3ccc(-c4ccc5c(c4)CC[C@@H]5N4CCN(C)CC4)cc3)c2)cn1` [Example 152, 6-amino-6′-methoxy-N-[(1S,2S)-2-({4-[(1S)-1-(4-methylpiperazin-1-yl)-2,3-dihydro-1H-inden-5-yl]phenyl}methoxy)cyclopentyl][3,3′-bipyridine]-5-carboxamide]: the figures for the IC50 in test [1], in test [2] and in test [3] were less than 10 nM, 100 to 1000 nM and less than 10 nM, respectively.

For the compound `N#Cc1ccc(-c2cnc(N)c(C(=O)N[C@H]3CCC[C@@H]3OCc3ccc(-c4ccc5c(c4)CC[C@@H]5N4CCN(CCO)CC4)cc3)c2)cn1` [Example 153, 6-amino-6′-cyano-N-{(1S,2S)-2-[(4-{(1S)-1-[4-(2-hydroxyethyl)piperazin-1-yl]-2,3-dihydro-1H-inden-5-yl}phenyl)methoxy]cyclopentyl}[3,3′-bipyridine]-5-carboxamide], the IC50 in test [1] is less than 10 nM; in test [2] it was 100 to 1000 nM; in test [3], less than 10 nM.

For the compound `CN1CCN([C@H]2CCc3cc(-c4ccc(CO[C@H]5CCC[C@@H]5NC(=O)c5cc(-c6ccc(C#N)nc6)cnc5N)cc4)ccc32)CC1` [Example 154, 6-amino-6′-cyano-N-[(1S,2S)-2-({4-[(1S)-1-(4-methylpiperazin-1-yl)-2,3-dihydro-1H-inden-5-yl]phenyl}methoxy)cyclopentyl][3,3′-bipyridine]-5-carboxamide], the IC50 in test [1] was less than 10 nM; in test [2], 100 to 1000 nM; in test [3], less than 10 nM.
